Assay results from patent publication US20260344673A1, “A SOLID FORM FOR PREPARATION OF AN AQUEOUS DISPERSION, AQUEOUS DISPERSION, STABLE CONCENTRATE, COMBINED AQUEOUS DISPERSION, AND USES THEREOF” (priority 2022, published 2026).

What was measured:
Phytium ultimum = assay: Kirby-Bauer disk diffusion test, Phytium ultimum
Procedure: (§1) The performance of the embodiments of the present inventions and their mixtures enriched with millbase (MFA) was analysed against the appropriate reference substance, i.e., a commercial product containing the analogue active substance with the same concentration. The prepared solutions were applied on the paper antibiograms. Then the soaked antibiograms were placed on the Petri Dishes (dish diameter 90 mm) with the growth medium for fungal pathogens V8. Composition of V8: agar, calcium carbonate and multi-vegetable juice. 3 fragments of mycelium of the tested pathogen (5×5 mm) were transplanted onto the prepared medium. As a result, the zones where the fungal growth was inhibited have been measured and compared respectively with the control sample and the analogue active substance sample.
(§2) Assessment was carried out by determining the infested area of the Petri dish in %. These percentages have been converted into efficacy (W) according to Abbot's formula as follows: W=(1−α/β)×100 • where: • α—corresponds to the mycelium/bacterial growth of each tested sample [%], • β—corresponds to the mycelium/bacterial growth in control sample [%].
(§3) In order to estimate if the combined action effect with the commercial fungicide, the W parameter of the mixture was compared with W parameter for particular commercial fungicide solo. Where W=0 the efficacy of the control sample (whole Petri dish covered with mycelium), and W=100 is when no mycelium growth observed.

Phytophthora megasperma = assay: Kirby-Bauer disk diffusion test, Phytophthora megasperma; conditions: Phytophthora megasperma; for % mycelium growth relative to the control / mycelium growth: V8 medium; for mycelium growth: control 5.4 cm (8.6 cm in Table 25); for EFFICACY W (Abbot): control W=0, no growth W=100
Procedure: (§4) The microbiological tests were carried out by applying Kirby-Bauer Disk Diffusion Susceptibility Test Protocol for antimicrobial activity. It is based on the formation of a concentration gradient in the growth medium during the diffusion of the active substance from the antibiogram disc (Kirby-Bauer method).
as §1, §2, §3

Phytophthora cactorum = assay: Kirby-Bauer disk diffusion test, Phytophthora cactorum; design: % mycelium growth relative to the control: concentration or dose not given beside the values; conditions: for % mycelium growth relative to the control / mycelium growth: V8 medium; for mycelium growth: control 5.4 cm; for EFFICACY W (Abbot): control W=0, no growth W=100
Procedure: as §1, §2, §3

Septoria nodorum (1291) = assay: Kirby-Bauer disk diffusion test, Septoria nodorum (1291); conditions: for % mycelium growth relative to the control / mycelium growth: V8 medium; for mycelium growth: control 5.4 cm; for EFFICACY W (Abbot): control W=0, no growth W=100
Procedure: as §1, §2, §3

Rhizoctonia solani = assay: Kirby-Bauer disk diffusion test, Rhizoctonia solani; conditions: for % mycelium growth relative to the control / mycelium growth: V8 medium; for mycelium growth: control 8.6 cm; for EFFICACY W (Abbot): control W=0, no growth W=100
Procedure: as §1, §2, §3

Fusarium oxysporum = assay: Kirby-Bauer disk diffusion test, Fusarium oxysporum; conditions: Fusarium oxysporum; for % mycelium growth relative to the control / mycelium growth: V8 medium; for mycelium growth: control 8.6 cm; for EFFICACY W (Abbot): control W=0, no growth W=100
Procedure: as §4, §1, §2, §3

Septoria tritici = assay: Kirby-Bauer disk diffusion test, Septoria tritici; conditions: for % mycelium growth relative to the control / mycelium growth: V8 medium; for mycelium growth: control 1.9 cm; for EFFICACY W (Abbot): control W=0, no growth W=100
Procedure: as §1, §2, §3

Fusarium equiseti = assay: Kirby-Bauer disk diffusion test, Fusarium equiseti; conditions: for % mycelium growth relative to the control / mycelium growth: V8 medium; for mycelium growth: control 8.6 cm; for EFFICACY W (Abbot): control W=0, no growth W=100
Procedure: as §1, §2, §3

[1] = system: Colletotrichum gloeosporioides; assay: Kirby-Bauer disk diffusion test, Colletotrichum gloeosporioides; conditions: Colletotrichum gloeosporioides; for % mycelium growth relative to the control / mycelium growth: V8 medium; for mycelium growth: control 5.4 cm; for EFFICACY W (Abbot): control W=0, no growth W=100
Procedure: as §4, §1, §2, §3

[2] = system: Alternaria infectoria/alternata; assay: Kirby-Bauer disk diffusion test, Alternaria infectoria/alternata; conditions: for % mycelium growth relative to the control / mycelium growth: V8 medium; for mycelium growth: control 8.6 cm; for EFFICACY W (Abbot): control W=0, no growth W=100
Procedure: as §1, §2, §3

Fusarium graminearum = conditions: for % mycelium growth relative to the control / mycelium growth: V8 medium; for mycelium growth: control 8.6 cm; for EFFICACY W (Abbot): control W=0, no growth W=100
Verticillium longisporum = assay: Kirby-Bauer disk diffusion test, Verticillium longisporum; conditions: for % mycelium growth relative to the control / mycelium growth: V8 medium; for mycelium growth: control 3.9 cm; for EFFICACY W (Abbot): control W=0, no growth W=100
Procedure: as §1, §2, §3

Monilinia fructigena = assay: Kirby-Bauer disk diffusion test, Monilinia fructigena; conditions: for % mycelium growth relative to the control / mycelium growth: V8 medium; for mycelium growth: control 5.4 cm; for EFFICACY W (Abbot): control W=0, no growth W=100
Procedure: as §1, §2, §3

Botrytis cinerea = assay: Kirby-Bauer disk diffusion test, Botrytis cinerea; conditions: for % mycelium growth relative to the control / mycelium growth: V8 medium; for mycelium growth: control 8.6 cm; for EFFICACY W (Abbot): control W=0, no growth W=100
Procedure: as §1, §2, §3

Venturia inaegualis = assay: Kirby-Bauer disk diffusion test, Venturia inaequalis; conditions: Venturia inaegualis; for % mycelium growth relative to the control / mycelium growth: V8 medium; for mycelium growth: control 2.9 cm; for EFFICACY W (Abbot): control W=0, no growth W=100
Procedure: as §4, §1, §2, §3

Sclerotinia sclerotiorum = assay: Kirby-Bauer disk diffusion test, Sclerotinia sclerotiorum; conditions: for % mycelium growth relative to the control / mycelium growth: V8 medium; for mycelium growth: control 8.6 cm; for EFFICACY W (Abbot): control W=0, no growth W=100
Procedure: as §1, §2, §3

## Cc1ccc(-c2c(Cl)nc(C#N)n2S(=O)(=O)N(C)C)cc1 [Cyazofamid (80)]
Phytium ultimum; V8 medium
  % mycelium growth relative to the control: 66%
Phytium ultimum; V8 medium, control 8.6 cm
  mycelium growth: 5.7 cm
Phytium ultimum; control W=0, no growth W=100
  EFFICACY W (Abbot): 76
Phytophthora megasperma
  % mycelium growth relative to the control: 100%
  mycelium growth: 5.4 cm
  EFFICACY W (Abbot): 0
Phytophthora cactorum
  % mycelium growth relative to the control: 63%
  mycelium growth: 3.4 cm
  EFFICACY W (Abbot): 37

## N#Cc1c[nH]cc1-c1cccc2c1OC(F)(F)O2 [Fludioxonil (250)]
Septoria nodorum (1291)
  % mycelium growth relative to the control: 72%
  mycelium growth: 3.9 cm
  EFFICACY W (Abbot): 28
Rhizoctonia solani
  % mycelium growth relative to the control: 55%
  mycelium growth: 4.7 cm
  EFFICACY W (Abbot): 45
Fusarium oxysporum
  % mycelium growth relative to the control: 86%
  mycelium growth: 7.4 cm
  EFFICACY W (Abbot): 14
Septoria tritici
  % mycelium growth relative to the control: 42%
  mycelium growth: 0.8 cm
  EFFICACY W (Abbot): 58
Fusarium equiseti
  % mycelium growth relative to the control: 81%
  mycelium growth: 7 cm
  EFFICACY W (Abbot): 19
[1]
  % mycelium growth relative to the control: 81%
  mycelium growth: 4.4 cm
  EFFICACY W (Abbot): 19
[2]
  % mycelium growth relative to the control: 0%
  mycelium growth: 0 cm
  EFFICACY W (Abbot): 100
Fusarium graminearum
  % mycelium growth relative to the control: 73%
  mycelium growth: 6.3 cm
  EFFICACY W (Abbot): 27
Verticillium longisporum
  % mycelium growth relative to the control: 87%
  mycelium growth: 3.4 cm
  EFFICACY W (Abbot): 13
Phytophthora megasperma
  % mycelium growth relative to the control: 100%
  mycelium growth: 5.4 cm
  EFFICACY W (Abbot): 0
Monilinia fructigena
  % mycelium growth relative to the control: 61%
  mycelium growth: 3.3 cm
  EFFICACY W (Abbot): 39
Phytophthora cactorum
  % mycelium growth relative to the control: 100%
  mycelium growth: 5.4 cm
  EFFICACY W (Abbot): 0
Botrytis cinerea
  % mycelium growth relative to the control: 0%
  mycelium growth: 0 cm
  EFFICACY W (Abbot): 100
Venturia inaegualis
  % mycelium growth relative to the control: 38%
  mycelium growth: 1.1 cm
  EFFICACY W (Abbot): 62
Sclerotinia sclerotiorum
  % mycelium growth relative to the control: 0%
  mycelium growth: 0 cm
  EFFICACY W (Abbot): 100

## O=C1C2CC=CCC2C(=O)N1SC(Cl)(Cl)Cl (stereo not drawn) [Captan (1500)]
[1]
  % mycelium growth relative to the control: 11%
  mycelium growth: 0.6 cm
  EFFICACY W (Abbot): 89
Monilinia fructigena
  % mycelium growth relative to the control: 33%
  mycelium growth: 1.8 cm
  EFFICACY W (Abbot): 67
Botrytis cinerea
  % mycelium growth relative to the control: 70%
  mycelium growth: 6 cm
  EFFICACY W (Abbot): 30
Venturia inaegualis
  % mycelium growth relative to the control: 38%
  mycelium growth: 1.1 cm
  EFFICACY W (Abbot): 62

## O=C(NCCc1ncc(C(F)(F)F)cc1Cl)c1ccccc1C(F)(F)F [Fluopyram (500)]
Septoria nodorum (1291)
  % mycelium growth relative to the control: 61%
  mycelium growth: 3.3 cm
  EFFICACY W (Abbot): 39
Rhizoctonia solani
  % mycelium growth relative to the control: 100%
  mycelium growth: 8.6 cm
  EFFICACY W (Abbot): 0
Fusarium oxysporum
  % mycelium growth relative to the control: 100%
  mycelium growth: 8.6 cm
  EFFICACY W (Abbot): 0
Septoria tritici
  % mycelium growth relative to the control: 0%
  mycelium growth: 0 cm
  EFFICACY W (Abbot): 100
Fusarium equiseti
  % mycelium growth relative to the control: 79%
  mycelium growth: 6.8 cm
  EFFICACY W (Abbot): 21
[2]
  % mycelium growth relative to the control: 55%
  mycelium growth: 4.7 cm
  EFFICACY W (Abbot): 45
Fusarium graminearum
  % mycelium growth relative to the control: 66%
  mycelium growth: 5.7 cm
  EFFICACY W (Abbot): 34
Verticillium longisporum
  % mycelium growth relative to the control: 95%
  mycelium growth: 3.7 cm
  EFFICACY W (Abbot): 5
Phytophthora megasperma
  % mycelium growth relative to the control: 65%
  mycelium growth: 3.5 cm
  EFFICACY W (Abbot): 35
Monilinia fructigena
  % mycelium growth relative to the control: 30%
  mycelium growth: 1.6 cm
  EFFICACY W (Abbot): 70
Phytophthora cactorum
  % mycelium growth relative to the control: 72%
  mycelium growth: 3.9 cm
  EFFICACY W (Abbot): 28
Venturia inaegualis
  % mycelium growth relative to the control: 0%
  mycelium growth: 0 cm
  EFFICACY W (Abbot): 100
Sclerotinia sclerotiorum
  % mycelium growth relative to the control: 100%
  mycelium growth: 8.6 cm
  EFFICACY W (Abbot): 0
